Test results taken from ChEMBL document CHEMBL4425153, “Matched and mixed cap derivatives in the tetracyclic indole class of HCV NS5A inhibitors” (Bioorg Med Chem Lett, 2016).
Substitutions are numbered along the chain they refer to.

Key:
[1] = system: T1, Nonstructural protein 5A (Hepatitis C virus), Q5L478 [Y93H]; assay: Inhibition of HCV genotype 1a NS5A Y93H mutant assessed as reduction in viral RNA level by cell based real time PCR method; conditions: Hepatitis C virus subtype 1a
T1 sequence (whole entry): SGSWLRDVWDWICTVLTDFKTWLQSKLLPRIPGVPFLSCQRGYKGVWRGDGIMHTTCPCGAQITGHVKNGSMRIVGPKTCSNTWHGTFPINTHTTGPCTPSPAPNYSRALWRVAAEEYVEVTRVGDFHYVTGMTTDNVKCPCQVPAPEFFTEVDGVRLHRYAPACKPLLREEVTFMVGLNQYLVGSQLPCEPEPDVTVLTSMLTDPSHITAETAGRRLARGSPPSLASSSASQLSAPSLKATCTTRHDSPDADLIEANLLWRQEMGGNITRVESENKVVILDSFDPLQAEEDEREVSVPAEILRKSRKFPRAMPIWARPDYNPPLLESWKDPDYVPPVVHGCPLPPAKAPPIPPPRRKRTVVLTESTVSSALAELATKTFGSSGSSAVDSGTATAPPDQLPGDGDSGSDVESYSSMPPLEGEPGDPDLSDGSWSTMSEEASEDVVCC

[2] = system: Nonstructural protein 5A (Hepatitis C virus), Q5L478 [UNDEFINED MUTATION]; assay: Inhibition of HCV genotype 1a NS5A L31V mutant assessed as reduction in viral RNA level by cell based real time PCR method; conditions: Hepatitis C virus subtype 1a
[3] = biological target: T2, Nonstructural protein 5A (Hepatitis C virus) (UniProt Q5L478); assay: Inhibition of wild type HCV genotype 2b NS5A assessed as reduction in viral RNA level by cell based real time PCR method; conditions: Hepatitis C virus subtype 2b
T2 sequence (whole entry): T1 sequence (whole entry) with H93Y

[4] = biological target: T2, Nonstructural protein 5A (Hepatitis C virus); assay: Inhibition of wild type HCV genotype 1a NS5A assessed as reduction in viral RNA level by cell based real time PCR method; conditions: Hepatitis C virus subtype 1a

| Structure (SMILES) | EC90 [1] [nM] | EC90 [2] [nM] | EC90 [3] [nM] | EC90 [4] [nM] |
| --- | --- | --- | --- | --- |
| COC(=O)NC1(C(=O)N2CCC[C@H]2c2ncc(-c3ccc4c(c3)O[C@@H](c3ccccc3)n3c-4cc4cc(-c5cnc([C@@H]6CCCN6C(=O)C6(NC(=O)OC)CCOCC6)[nH]5)ccc43)[nH]2)CCOCC1 | > 100 | > 100 | > 100 | 1.4 |
| COC(=O)N[C@H](C(=O)N1CCC[C@H]1c1ncc(-c2ccc3c(c2)O[C@@H](c2ccccc2)n2c-3cc3cc(-c4cnc([C@@H]5CCCN5C(=O)[C@@H](NC(=O)OC)C5CCOCC5)[nH]4)ccc32)[nH]1)C(C)C | 11 | 0.6 | 9 | 0.06 |
| CCN(CC)[C@@H](C(=O)N1CCC[C@H]1c1ncc(-c2ccc3c(c2)cc2n3[C@H](c3ccccc3)Oc3cc(-c4cnc([C@@H]5CCCN5C(=O)[C@@H](NC(=O)OC)C(C)C)[nH]4)ccc3-2)[nH]1)c1ccccc1 | 44 | – | 4 | 0.045 |
| COC(=O)N[C@H](C(=O)N1CCC[C@H]1c1ncc(-c2ccc3c(c2)O[C@@H](c2ccccc2)n2c-3cc3cc(-c4cnc([C@@H]5CCCN5C(=O)[C@@H](NC(=O)OC)C5CCC(F)(F)CC5)[nH]4)ccc32)[nH]1)C(C)C | 34 | 0.89 | 23 | 0.018 |
| COC(=O)N[C@H](C(=O)N1CCC[C@H]1c1ncc(-c2ccc3c(c2)O[C@@H](c2ccccc2)n2c-3cc3cc(-c4cnc([C@@H]5CCCN5C(=O)[C@@H](NC(=O)OC)C5CCCC5)[nH]4)ccc32)[nH]1)C1CCCC1 | > 100 | 4.1 | 52 | 0.014 |
| CN(C)[C@@H](C(=O)N1CCC[C@H]1c1ncc(-c2ccc3c(c2)O[C@@H](c2ccccc2)n2c-3cc3cc(-c4cnc([C@@H]5CCCN5C(=O)[C@@H](c5ccccc5)N(C)C)[nH]4)ccc32)[nH]1)c1ccccc1 | > 100 | 2.1 | 0.87 | 0.3 |
| COC(=O)N[C@@H](C)C(=O)N1CCC[C@H]1c1ncc(-c2ccc3c(c2)O[C@@H](c2ccccc2)n2c-3cc3cc(-c4cnc([C@@H]5CCCN5C(=O)[C@H](C)NC(=O)OC)[nH]4)ccc32)[nH]1 | > 100 | 6.4 | > 100 | 0.042 |
| CC[C@H](C)[C@H](NC(=O)OC)C(=O)N1CCC[C@H]1c1ncc(-c2ccc3c(c2)O[C@@H](c2ccccc2)n2c-3cc3cc(-c4cnc([C@@H]5CCCN5C(=O)[C@@H](NC(=O)OC)C(C)C)[nH]4)ccc32)[nH]1 | 77 | 4.3 | 50 | 0.06 |
| COC(=O)N[C@H](C(=O)N1CCC[C@H]1c1ncc(-c2ccc3c(c2)O[C@@H](c2ccccc2)n2c-3cc3cc(-c4cnc([C@@H]5CCCN5C(=O)[C@@H](NC(=O)OC)[C@@H](C)OC)[nH]4)ccc32)[nH]1)C(C)C | 54 | – | 35 | 0.039 |
| COC(=O)N[C@@H](C(=O)N1CCC[C@H]1c1ncc(-c2ccc3c(c2)O[C@@H](c2ccccc2)n2c-3cc3cc(-c4cnc([C@@H]5CCCN5C(=O)[C@H](NC(=O)OC)C5CCOCC5)[nH]4)ccc32)[nH]1)C1CCOCC1 | > 100 | > 100 | > 100 | 8.6 |
| COC(=O)N[C@H](C(=O)N1CCC[C@H]1c1ncc(-c2ccc3c(c2)O[C@@H](c2ccccc2)n2c-3cc3cc(-c4cnc([C@@H]5CCCN5C(=O)C5(NC(=O)OC)CCCCC5)[nH]4)ccc32)[nH]1)C(C)C | > 100 | 14.7 | > 100 | 0.035 |
| COC(=O)N[C@H](C(=O)N1CCC[C@H]1c1nc(-c2ccc3c(c2)O[C@@H](c2ccccc2)n2c-3cc3cc(-c4c[nH]c([C@@H]5CCCN5C(=O)[C@@H](NC(=O)OC)C(C)C)n4)ccc32)c[nH]1)C(C)C | 28 | 1 | 11 | 0.006 |
| COC(=O)N[C@H](C(=O)N1CCC[C@H]1c1ncc(-c2ccc3c(c2)O[C@@H](c2ccccc2)n2c-3cc3cc(-c4cnc([C@@H]5CCCN5C(=O)[C@@H](NC(=O)OC)[C@@H](C)OC)[nH]4)ccc32)[nH]1)[C@@H](C)OC | > 100 | – | 17 | 0.019 |
